Assay results as given in PMC5926957 (Japanese Journal of Cancer Research : Gann, 2002).

Target: P-glycoprotein (P-gp) (Homo sapiens, UniProt P08183)
Experiment: calcein-AM efflux assay in L-MDR1 vs LLC-PK1 cells
Format: cell-based

Sequence of P-glycoprotein (P-gp) (P08183 whole entry): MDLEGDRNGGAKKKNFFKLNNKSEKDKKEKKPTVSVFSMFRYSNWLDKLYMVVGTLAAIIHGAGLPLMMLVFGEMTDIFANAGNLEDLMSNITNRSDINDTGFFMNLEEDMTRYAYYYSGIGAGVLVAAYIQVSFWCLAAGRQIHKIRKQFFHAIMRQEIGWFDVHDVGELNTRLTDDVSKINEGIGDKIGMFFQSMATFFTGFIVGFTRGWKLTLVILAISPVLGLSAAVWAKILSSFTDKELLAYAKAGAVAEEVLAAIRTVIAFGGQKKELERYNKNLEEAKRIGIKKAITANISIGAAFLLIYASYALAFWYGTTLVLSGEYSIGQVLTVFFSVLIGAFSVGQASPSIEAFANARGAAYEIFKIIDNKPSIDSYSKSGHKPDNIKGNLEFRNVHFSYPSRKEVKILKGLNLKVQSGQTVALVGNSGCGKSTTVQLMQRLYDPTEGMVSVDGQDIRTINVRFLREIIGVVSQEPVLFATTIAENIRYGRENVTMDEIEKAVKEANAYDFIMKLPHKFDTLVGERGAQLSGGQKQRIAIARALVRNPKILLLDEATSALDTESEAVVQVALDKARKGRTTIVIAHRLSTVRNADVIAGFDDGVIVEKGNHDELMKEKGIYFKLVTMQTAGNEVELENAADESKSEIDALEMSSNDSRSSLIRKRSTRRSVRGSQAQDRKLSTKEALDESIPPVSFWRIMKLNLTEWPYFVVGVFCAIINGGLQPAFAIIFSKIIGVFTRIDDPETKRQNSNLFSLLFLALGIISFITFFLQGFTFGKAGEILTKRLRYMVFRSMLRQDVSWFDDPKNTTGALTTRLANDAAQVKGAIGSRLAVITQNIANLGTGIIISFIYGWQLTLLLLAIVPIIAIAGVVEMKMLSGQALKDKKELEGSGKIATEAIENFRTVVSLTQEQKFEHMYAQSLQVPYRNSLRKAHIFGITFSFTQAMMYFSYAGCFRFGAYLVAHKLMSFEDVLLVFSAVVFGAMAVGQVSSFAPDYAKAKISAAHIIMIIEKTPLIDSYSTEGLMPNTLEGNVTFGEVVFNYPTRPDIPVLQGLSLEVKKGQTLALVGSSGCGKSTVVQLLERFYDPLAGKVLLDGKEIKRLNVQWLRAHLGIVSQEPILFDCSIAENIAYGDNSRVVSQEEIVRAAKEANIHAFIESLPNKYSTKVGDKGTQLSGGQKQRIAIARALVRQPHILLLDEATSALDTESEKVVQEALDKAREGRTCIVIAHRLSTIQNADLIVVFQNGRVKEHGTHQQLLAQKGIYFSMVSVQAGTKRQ

CC(C)C[C@H]1C(=O)N2CCC[C@H]2[C@]2(O)O[C@](NC(=O)[C@@H]3C=C4c5cccc6[nH]c(Br)c(c56)C[C@H]4N(C)C3)(C(C)C)C(=O)N12 [bromocriptine]
Ki: 6.52 µM
